Patent US12611387B2, “Compound and composition for inducing neuroprotection” (REST THERAPEUTICS, priority 2020, dated 2026)

Assays:
Iba-1 = test: Immunohistochemical quantification of Iba-1 (microgliosis); type: in vivo, mice; conditions: 0.3 mg/Kg i.p.
Protocol: (§1) The neuroprotective effect of the compounds, i.e. the ability thereof to protect cells from Aβ25-35 oligomer neurotoxicity and neurodegeneration, is also tested (FIG. 10). The test compounds are thus administered on the same day as the injection of the Aβ25-35 oligomers and are continued to be administered on a daily basis up to day 7 after the injection of the oligomers, at which time the mice are subjected to the YMT, PAT, MWT or ORT. The brain's anatomy is analysed and neuronal cells are counted by immunohistochemistry on mice sacrificed at D13. The biochemical analyses for the quantification of markers of oxidative stress and apoptosis were carried out at D16 on a group of mice that had been subjected to the WMT (FIG. 10).
(§2) They were previously anaesthetised by i.p. injection of 200 μL of a solution of ketamine (80 mg/Kg) and xylazine (10 mg/Kg), then the tissues were fixed by intracardiac perfusion of 50 mL of a saline solution followed by 50 mL of Antigenfix® fixative (Diapath). The samples were kept for a further 48 hours in the fixative at 4° C., and then the mouse brains were stored in a 30% sucrose solution in PBS, before being sliced.
(§3) Slices were taken of each area of the brain, in particular the cortex, the nucleus basalis magnocellularis and the hippocampus (i.e. between bregma +1.8 and bregma −2.8 according to the stereotaxic coordinates of the mouse brain, Paxinos et al., 2004). Serial coronal sections with a thickness of 25 μm were cut with a freezing microtome (Microm HM 450, Thermo Fisher) and stored at −20° C. in a cryoprotective solution. […]
(§4) Immunohistochemical labelling is carried out in a conventional manner. […] After rinsing with PBS, the sections were mounted in a mounting fluid (ProLong, ThermoFischer) and images of each section were taken with a confocal fluorescence microscope (Leica SPE) for different sub-regions of the hippocampus such as the stratum radiatum (Rad), the stratum moleculare (Mol), the polymorphic layer of the dentate gyrus (PoDG) and for the cortex, the lateral parietal association area (LPtA). […]

non-intoxicated mice = test: Passive avoidance test, amnestic effect in non-intoxicated mice; type: in vivo; conditions: 10 mg/Kg i.p.
Description: This test measures non-spatial (contextual) long-term memory. The apparatus used for this test was a box with two compartments (15×20×15 cm high), one illuminated with white PVC walls and the other in the dark with black PVC walls and a grid floor. A guillotine door separated the compartments. A 60 W lamp was positioned 40 cm above the box and illuminated the white compartment. Electric shocks (0.3 mA for 3 s) could be delivered to the grid floor using a generator (Lafayette Instruments, Lafayette, USA). The test comprised a training session and a test session. The guillotine door was closed during the training session. Each mouse was placed in the white compartment. After 5 seconds, the door was raised. When the mouse entered the darkened compartment and placed all four feet in contact with the grid floor, the door was closed and the electric shocks were delivered for 3 seconds. The time taken by the mouse to re-enter the darkened compartment (STL-Tg) and the number of vocalizations were recorded. The test session was conducted 24 hours after the training session. Each mouse was placed back into the illuminated white compartment. After 5 s the door was raised, the step-through latency (STL-R), i.e. the time it took the mouse to enter the darkened compartment, was measured. The maximum duration was 300 s. Mice with a STL-Tg>30 s or a STL-Tg and a STL-R<10 s were not considered for the test. […]

[1] = system: Aβ25-35 oligomer-intoxicated mice; test: Passive avoidance test, neuroprotection design; type: in vivo; conditions: doses 0.03; 0.1; 0.3; 1.0 and 3 mg/Kg i.p., neuroprotection design (not shown)
Protocol: as §1
This test measures non-spatial (contextual) long-term memory. The apparatus used for this test was a box with two compartments (15×20×15 cm high), one illuminated with white PVC walls and the other in the dark with black PVC walls and a grid floor. A guillotine door separated the compartments. A 60 W lamp was positioned 40 cm above the box and illuminated the white compartment. […] The time taken by the mouse to re-enter the darkened compartment (STL-Tg) and the number of vocalizations were recorded. […] After 5 s the door was raised, the step-through latency (STL-R), i.e. the time it took the mouse to enter the darkened compartment, was measured. […]

GFAP = test: Immunohistochemical quantification of GFAP (astrogliosis); type: in vivo, mice; conditions: 0.3 mg/Kg i.p.
Protocol: as §1, §2, §3, §4

[2] = system: Aβ25-35 oligomer-intoxicated mice; test: Morris water maze test, neuroprotection design; type: in vivo; conditions: 0.3 mg/Kg, probe test
Protocol: as §1
This test is used to assess long-term spatial reference memory. […] The animals' swimming behaviour was recorded (Videotrack® software, Viewpoint), and the trajectories, latencies and distances covered were measured. […] Median latency (time taken to find the platform) was calculated for each training day and expressed for the group as the mean latency±standard deviation. […] Each mouse was left in the water for 60 seconds and its swimming behaviour was recorded. The time spent in the north-eastern quadrant, which originally contained the platform (T), was measured and compared to the average time spent in the other quadrants (o).

[3] = all brain areas tested (Rad, Mol, PoDG, LPtA)

Row | SMILES | Iba-1 labelling (microglial response) (Iba-1; PoDG area) | Iba-1 labelling (microgliosis) (Iba-1; cortex (LPtA)) | Latency (non-intoxicated mice) [s] | protective effect on latency in the passive avoidance test, effective doses [1] | GFAP labelling (astrogliosis) (GFAP; Mol) | GFAP labelling (astrocytic response) (GFAP; PoDG area) | time spent in the training quadrant (learning and long-term spatial memory) [2] | Iba-1 labelling (microglial response) (Iba-1; [3]) | GFAP labelling (astrocytic response) (GFAP; [3])
1 | CC12CC3CC(C)(C1)CC(N)(C3)C2 [memantine, 3,5-Dimethyl-1-adamantanamine, reference compound] | positive effect in the PoDG area | no effect | 56.0 ± 31.1 | only observed at two of the doses tested (0.1 and 1 mg/Kg i.p.) | no effect on astrogliosis in the Mol | positive effect in the PoDG area | did not prevent the impairment of learning and memory functions | – | –
2 | NC12CC3CC(C1)CC(CCF)(C3)C2 [FENM, 3-(2-fluoroethyl)adamantan-1-amine] | – | – | 183.0 ± 38.4 | procured neuroprotection as regards memory for all doses tested from 0.1 mg/Kg i.p. up to and including 3 mg/Kg | – | – | maintained their learning and memory abilities | significantly decreases the astrocytic and microglial response in all of the brain areas tested | significantly decreases the astrocytic and microglial response in all of the brain areas tested
